Results: patent US7411067B2, “Crystalline forms of gatifloxacin” (Teva Pharmaceutical Industries Ltd, priority 2002, dated 2008)

How the values were obtained:
[1] = Exposure of powder as a thin layer in a controlled humidity cell; resulting crystalline form by x-ray diffraction; format: physicochemical; settings: 200 mg powder as thin layer
Protocol: As used herein in connection with the present invention, x-ray diffraction refers to x-ray diffraction by the powder diffraction technique. X-ray powder diffraction analysis was performed using a Scintag powder diffractometer with variable goniometer, a Cu source, and a solid state detector. A standard round aluminum sample holder with zero background quartz plate was used. Samples were scanned from 2° to 40° 2θ at 3° per minute in the continuous scan mode. Reflections are reported as peak maxima in the intensity vs. 2θ plots, and are subject to the normal experimental error (uncertainty). Samples were promptly analyzed “as is”.
In another embodiment, the present invention provides a method of making a mixture of novel crystalline form O and prior-art sesqihydrate. The ratios will depend, inter alia, on the conditions of treatment. The mixtures can be made by exposing prior art forms omega or TE, or crystalline form C (characterized by x-ray reflections at 7.2°, 10.8°, 15.8°, 21.8°, and 26.2°±0.2° 2θ) to an atmosphere having a relative humidity of at least about 60% (form c), or at least about 80% (form TE and omega) for an exposing time. The exposing time will generally be between about 24 hours and two weeks.
Preferably, the form omega, TE, or C is exposed as a thin layer of particles or crystals to facilitate diffusion of gasses and vapors. Preferably, the exposing is at ambient temperature.
The present invention can be further illustrated with the following non-limiting examples. In the following examples, the polymorphic or pseudopolymorphic form of gatifloxacin was determined by x-ray diffraction.
Gatifloxacin in form Ω (200 mg powder) was spread as a thin layer in a container having short vertical walls. The container was placed in a controlled humidity cell at 100% RH for 1 week.

[2] = reported in U.S. Pat. No. 5,880,283; cited from earlier work
[3] = room temperature, among the crystalline forms, per WO 02/22126 A1; cited from earlier work
[4] = among the crystalline forms, per WO 02/22126 A1; cited from earlier work
[5] = reported in U.S. Pat. No. 5,880,283; cited from earlier work; remark: listed apart in the source

SMILES	crystalline form found after humidity exposure ([1]; 80% RH, two weeks)	crystalline form found after humidity exposure ([1]; 100% RH, two weeks)	hygroscopicity [2]	other results
COc1c(N2CCNC(C)C2)c(F)cc2c(=O)c(C(=O)O)cn(C3CC3)c12 (stereo not drawn) [form C, gatifloxacin]	approximately 30:70 mixture by weight of form O and sesquihydrate	mixture of form O and sesquihydrate	–	crystalline form found after humidity exposure ([1]; 60% RH, two weeks): approximately 80:20 mixture by weight of form C and form O
COc1c(N2CCNC(C)C2)c(F)cc2c(=O)c(C(=O)O)cn(C3CC3)c12 (stereo not drawn) [form TE, gatifloxacin]	approximately equal weight mixture (1:1) of form O and sesquihydrate	approximately equal weight (1:1) mixture of form O and sesquihydrate	–	–
COc1c(N2CCNC(C)C2)c(F)cc2c(=O)c(C(=O)O)cn(C3CC3)c12 (stereo not drawn) [form Ω, gatifloxacin]	–	–	–	crystalline form found after humidity exposure ([1]; 80% RH, 1 week): approximately equal weight (1:1) mixture of form O and form Ω; crystalline form found after humidity exposure ([1]; 100% RH, 1 week): approximately equal weight (1:1) mixture of form O and sesquihydrate
COc1c(N2CCNC(C)C2)c(F)cc2c(=O)c(C(=O)O)cn(C3CC3)c12 (stereo not drawn) [hemihydrate, gatifloxacin]	–	–	hygroscopic	–
COc1c(N2CCNC(C)C2)c(F)cc2c(=O)c(C(=O)O)cn(C3CC3)c12 (stereo not drawn) [pentahydrate, gatifloxacin]	–	–	–	aqueous solubility [3]: lowest; thermodynamic stability [4]: most thermodynamically stable form
COc1c(N2CCNC(C)C2)c(F)cc2c(=O)c(C(=O)O)cn(C3CC3)c12 (stereo not drawn) [sesquihydrate, gatifloxacin]	–	–	less hygroscopic	stability in manufacturing [5]: more stable
